Like-named read-outs stand apart in the source and are kept apart here. Positions of bridges follow the written chain, without caps; N, C: chain ends. Residues, ends and D or L forms follow the SMILES beside them.
Legend:
trypsin = experiment: Trypsin protease activity, peptide substrate cleavage assay; type: biochemical; conditions: FIG. 3
hVEGF-A (8-109) = biological target: T1, hVEGF-A (8-109) (Homo sapiens, UniProt P15692); experiment: SPR binding assay (BIACORE 3000, 37° C.)
T1 sequence (P15692 34-135 isoform P15692-4): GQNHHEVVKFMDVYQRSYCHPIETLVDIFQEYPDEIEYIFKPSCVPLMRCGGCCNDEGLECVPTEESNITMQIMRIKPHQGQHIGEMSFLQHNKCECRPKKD
Procedure, shortened: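 VEGF-A, biotinylated and captured on streptavidin sensor or amine-coupled to CM5 at pH 5.0, to about 400 RU. Peptide concentration series in HBS-EP with 0.1% DMSO injected at […]; kinetics and affinities from 1:1 binding model fits.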

hVEGF-A = biological target: T2, hVEGF-A (Homo sapiens, UniProt P15692); experiment: KDR-CHO VEGF assay to determine cellular IC50 (VEGF mediated Tyr phosphorylation of KDR); type: cell-based
T2 sequence (P15692 207-395): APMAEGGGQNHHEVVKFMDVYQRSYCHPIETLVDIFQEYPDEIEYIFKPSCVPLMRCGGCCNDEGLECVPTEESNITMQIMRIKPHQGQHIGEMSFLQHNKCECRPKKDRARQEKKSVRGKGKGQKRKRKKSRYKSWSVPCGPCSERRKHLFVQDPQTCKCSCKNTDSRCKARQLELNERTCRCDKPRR

VEGF-A and KDR = biological target: T3, VEGF-A and KDR (Homo sapiens, UniProt P15692); experiment: Competition ELISA, KDR-VEGF interaction; type: binding
T3 sequence (P15692 207-395): T2 sequence (P15692 207-395)
Experimental: Binding specificity of each peptide was established by competition ELISA. […] After blocking with block buffer (PBS with 0.5% BSA and 0.05% TWEEN®20) for 2 hours at room temperature, the receptor-Fc fusions or biotinylated receptors were serially diluted using assay buffer (PBS with 0.5% BSA and 0.05% TWEEN®20) and incubated for 1 hour at room temperature. […] Competition ELISA was conducted in an identical fashion as described above except after blocking, a mixture of serially diluted peptide containing a constant concentration of receptor-Fc fusion or biotinylated receptor (concentration of receptor was set to EC60) was added and incubated for 1 hour. All recombinant human proteins and antibodies were purchased from R &D Systems (Minneapolis, Minn.).

[1] = KD, Table 37, surface plasmon resonance, VEGF-A
[2] = Table 37, surface plasmon resonance, VEGF-A
[3] = IC50 against VEGF-A in in vitro and cellular assays, Table 25, improved potency compared to parent VEGF-CKP9

Row | SMILES | inhibition of trypsin protease activity (trypsin) | Kd (hVEGF-A (8-109); KD (nM), hVEGF-A WT) | Kd (hVEGF-A (8-109); KD (nM), human 8-109, Table 30) | Kd (hVEGF-A (8-109); [1]) | kd (hVEGF-A (8-109); [2]) | kd (hVEGF-A (8-109); hVEGF-A WT) | kd (hVEGF-A (8-109); human 8-109, Table 30) | IC50 (hVEGF-A; Cellular IC50, Table 25) | IC50 (hVEGF-A; Cellular IC50, Table 28) | IC50 (hVEGF-A; [3]) | IC50 (VEGF-A and KDR) | Kd (hVEGF-A (8-109); KD, hVEGF-A (8-109), Table 29) | kd (hVEGF-A (8-109); hVEGF-A (8-109), Table 29) | ka (hVEGF-A (8-109); human 8-109, Table 30) | IC50 (hVEGF-A; Cellular IC50 (nM), Table 36, loop 3/loop 4 variants) | FOLD IMPROVEMENT RELATIVE TO VARIANT 9.54.90 (hVEGF-A; Table 36, from cellular IC50) | IC50 (hVEGF-A; Table 38, F8Y and/or unnatural amino acid variants, read-out: Cellular IC50) | FOLD IMPROVEMENT RELATIVE TO VARIANT 9.54.90 (hVEGF-A; Table 38, from cellular IC50) | disruption of the interaction between VEGF-A and KDR (VEGF-A and KDR; FIGS. 2A and 2B)
1 | CC[C@H](C)[C@@H]1NC(=O)[C@H](CC(N)=O)NC(=O)[C@@H](NC(=O)CN)CSSC[C@@H](C(=O)N[C@H](C(=O)N[C@H]2CSSC[C@@H](C(=O)NCC(=O)O)NC(=O)[C@H](CO)NC(=O)[C@H](CCC(N)=O)NC(=O)[C@H](Cc3ccc(O)cc3)NC(=O)[C@H](Cc3ccc(O)cc3)NC(=O)[C@H](CCC(N)=O)NC2=O)C(C)C)NC(=O)CNC(=O)[C@H](C)NC(=O)[C@H](CC(C)C)NC(=O)[C@@H]2CSSC[C@H](NC(=O)CNC(=O)[C@H](Cc3c[nH]c4ccccc34)NC(=O)[C@H](Cc3ccccc3)NC(=O)[C@@H]3CCCN3C(=O)[C@H](CC(C)C)NC(=O)[C@H](CCSC)NC1=O)C(=O)N[C@@H](CCCCN)C(=O)N[C@@H](CCC(N)=O)C(=O)N[C@@H](CC(=O)O)C(=O)N[C@@H](CO)C(=O)N[C@@H](CC(=O)O)C(=O)N2 [VEGF_CKP9.54] (H-GCNIMLPFWGCKQDSDCLAGCVCQYYQSCG-OH; disulfide 2-21, 11-17, 23-29 (inferred); N-terminus and C-terminus assumed) | do not inhibit | 55 nM | 176 nM | 44 ± 6 nM | 2.3 | 0.2349 | 2.18 × 10^−1 | 188 nM | 188 nM | 100 to 200 nM | 5.8 nM | – | – | – | – | – | – | – | –
2 | CSCC[C@@H]1NC(=O)[C@H](C(C)C)NC(=O)[C@H](CC(=O)O)NC(=O)[C@@H](NC(=O)CN)CSSC[C@@H](C(=O)N[C@H](C(=O)N[C@H]2CSSC[C@@H](C(=O)NCC(=O)O)NC(=O)[C@H](CO)NC(=O)[C@H](CC(N)=O)NC(=O)[C@H](Cc3ccc(O)cc3)NC(=O)[C@H](Cc3c[nH]c4ccccc34)NC(=O)[C@H](Cc3c[nH]cn3)NC2=O)C(C)C)NC(=O)CNC(=O)[C@H](C)NC(=O)[C@H](CC(C)C)NC(=O)[C@@H]2CSSC[C@H](NC(=O)CNC(=O)[C@H](Cc3c[nH]c4ccccc34)NC(=O)[C@H](Cc3ccc(O)cc3)NC(=O)[C@@H]3CCCN3C(=O)[C@H](CCC(N)=O)NC1=O)C(=O)N[C@@H](CCCCN)C(=O)N[C@@H](CCC(N)=O)C(=O)N[C@@H](CC(=O)O)C(=O)N[C@@H](CO)C(=O)N[C@@H](CC(=O)O)C(=O)N2 [VEGF_CKP9.63] (H-GCDVMQPYWGCKQDSDCLAGCVCHWYNSCG-OH; disulfide 2-21, 11-17, 23-29 (inferred); N-terminus and C-terminus assumed) | – | 100 nM | 281 nM | – | – | 0.1624 | 1.81 × 10^−1 | 140 nM | 140 nM | 100 to 200 nM | 10.8 nM | 100 nM | 1.6 | 6.62 × 10^5 | – | – | – | – | –
3 | CC[C@H](C)[C@@H]1NC(=O)[C@H](CC(N)=O)NC(=O)[C@@H](NC(=O)CN)CSSC[C@@H](C(=O)N[C@H](C(=O)N[C@H]2CSSC[C@@H](C(=O)NCC(=O)O)NC(=O)[C@H](CO)NC(=O)[C@H](CCC(N)=O)NC(=O)[C@H](Cc3ccc(O)cc3)NC(=O)[C@H](Cc3ccc(O)cc3)NC(=O)[C@H](CCC(N)=O)NC2=O)C(C)C)NC(=O)CNC(=O)[C@H](C)NC(=O)[C@H](CC(C)C)NC(=O)[C@@H]2CSSC[C@H](NC(=O)CNC(=O)[C@H](Cc3c[nH]c4ccccc34)NC(=O)[C@H](Cc3ccccc3)NC(=O)[C@@H]3CCCN3C(=O)[C@H](CC(C)C)NC(=O)[C@H](CCSC)NC1=O)C(=O)NCC(=O)N[C@@H](CCCNC(=N)N)C(=O)N[C@@H](CC(=O)O)C(=O)N[C@@H](Cc1ccccc1)C(=O)N[C@@H](CCC(=O)O)C(=O)N2 [VEGF_CKP9.54.90] (H-GCNIMLPFWGCGRDFECLAGCVCQYYQSCG-OH; disulfide 2-21, 11-17, 23-29; N-terminus and C-terminus assumed) | do not inhibit | 0.37 nM | 0.87 nM | 0.4 ± 0.08 nM | 0.17 | 0.0300 | 4.05 × 10^−2 | – | 1.35 nM | – | 0.2 nM | – | – | – | 1.35 nM | 1 | 1.35 nM | 1 | disrupts
4 | CC[C@H](C)[C@@H]1NC(=O)[C@H](CC(=O)O)NC(=O)[C@@H]2CCCN2C(=O)CNC(=O)[C@@H]2CSSC[C@H](NC(=O)[C@H](CC(=O)O)NC1=O)C(=O)N[C@@H](CC(C)C)C(=O)N[C@@H](C)C(=O)NCC(=O)N[C@H](C(=O)N[C@H](C(=O)N[C@H]1CSSC[C@@H](C(=O)NCC(=O)O)NC(=O)[C@H](CO)NC(=O)[C@H](CC(N)=O)NC(=O)[C@H](Cc3ccc(O)cc3)NC(=O)[C@H](Cc3c[nH]c4ccccc34)NC(=O)[C@H](Cc3c[nH]cn3)NC1=O)C(C)C)CSSC[C@H](NC(=O)CN)C(=O)N[C@@H](CC(=O)O)C(=O)N[C@@H](C(C)C)C(=O)N[C@@H](CCSC)C(=O)N[C@@H](CCC(N)=O)C(=O)N1CCC[C@H]1C(=O)N[C@@H](Cc1ccc(O)cc1)C(=O)N[C@@H](Cc1c[nH]c3ccccc13)C(=O)NCC(=O)N2 [VEGF_CKP9.63.12] (H-GCDVMQPYWGCGPDIDCLAGCVCHWYNSCG-OH; disulfide 2-21, 11-17, 23-29 (inferred); N-terminus and C-terminus assumed) | do not inhibit | – | – | – | – | 0.0096 | 2.50 × 10^−2 | – | – | – | – | – | 0.10 | – | – | 0.74 | – | – | –

From patent publication US11155586B2, “Cystine knot scaffold platform” (Genentech, Inc., priority 2015, dated 2021)
